This is an account of results in patent publication US20190374533A1, “COMPOUNDS AND METHODS FOR INHIBITING NHE-MEDIATED ANTIPORT IN THE TREATMENT OF DISORDERS ASSOCIATED WITH FLUID RETENTION OR SALT OVERLOAD AND GASTROINTESTINAL TRACT DISORDERS” (Ardelyx, Inc., priority 2008, published 2019).

Counter-ions that a name gives are not always drawn. Like-named read-outs stand apart in the source and are kept apart here.

The target in one data set is T1, rat NHE-3 (Rattus norvegicus, UniProt P26433).
T1 construct: expressed in transfected cells; host or cells: Opossum kidney (OK) cells (ATCC), electroporated
The data set can be described thus: Cell-based assay of NHE-3 activity (Pharmacological Test Example 1). The conditions noted are these: OK cells expressing rat NHE-3; 0-30 uM test compound, 5 uM EIPA; read-out: rat NHE-3 Average pIC50 (converted). Put shortly: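 OK cells electroporated with rat NHE-3, loaded with 5 uM BCECF-AM in NH4Cl-HEPES (pH 7.4) for 30 min at room temperature, then acid-loaded 10 min in Na+-free choline buffer. Na+-dependent H+ antiport read as initial rate of pH-dye change; pIC50 from 3-6 replicate averages.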

The nature of data set [1]: Determination of compound remaining in feces. In kind it is in vivo, rat. As to conditions: 0.1 mg/kg oral gavage; for recovery in 72-hour fecal samples: three rats; for dose excreted: Sprague-Dawley, rat, faeces, po, 0.1 mg/kg, read-out: % Recovery ± SD from 72-hour fecal samples. How it is done: Sprague-Dawley rats were orally gavaged with test article. A low dose of compound (0.1 mg/kg) was selected so that feces would remain solid and practical to collect. For both Examples 202 and 203, three rats were dosed, and following dosage of compounds, the rats were placed in metabolic cages for 72 hours. After 72 hours, fecal samples were recovered and dried for 48 hours. Dried fecal samples were ground to a powdered from, and for each rat, 10 replicates of 50 mg samples were extracted with acetonitrile. Insoluble materials were removed by centrifugation and supernatants analyzed by LC/MS/MS and compared against a standard curve to determine compound concentration. The amount of compound actually dosed was determined by LC/MS/MS analysis of the dosing solutions. The total amount of compound present in the 72-hour fecal samples was compared to the total amount of compound dosed, and reported as percentage of total dose recovered.

The next data set deals with T2, human NHE3 (Homo sapiens, UniProt P48764).
T2 construct: host or cells: PS120 fibroblasts
T2 sequence (P48764 26-834): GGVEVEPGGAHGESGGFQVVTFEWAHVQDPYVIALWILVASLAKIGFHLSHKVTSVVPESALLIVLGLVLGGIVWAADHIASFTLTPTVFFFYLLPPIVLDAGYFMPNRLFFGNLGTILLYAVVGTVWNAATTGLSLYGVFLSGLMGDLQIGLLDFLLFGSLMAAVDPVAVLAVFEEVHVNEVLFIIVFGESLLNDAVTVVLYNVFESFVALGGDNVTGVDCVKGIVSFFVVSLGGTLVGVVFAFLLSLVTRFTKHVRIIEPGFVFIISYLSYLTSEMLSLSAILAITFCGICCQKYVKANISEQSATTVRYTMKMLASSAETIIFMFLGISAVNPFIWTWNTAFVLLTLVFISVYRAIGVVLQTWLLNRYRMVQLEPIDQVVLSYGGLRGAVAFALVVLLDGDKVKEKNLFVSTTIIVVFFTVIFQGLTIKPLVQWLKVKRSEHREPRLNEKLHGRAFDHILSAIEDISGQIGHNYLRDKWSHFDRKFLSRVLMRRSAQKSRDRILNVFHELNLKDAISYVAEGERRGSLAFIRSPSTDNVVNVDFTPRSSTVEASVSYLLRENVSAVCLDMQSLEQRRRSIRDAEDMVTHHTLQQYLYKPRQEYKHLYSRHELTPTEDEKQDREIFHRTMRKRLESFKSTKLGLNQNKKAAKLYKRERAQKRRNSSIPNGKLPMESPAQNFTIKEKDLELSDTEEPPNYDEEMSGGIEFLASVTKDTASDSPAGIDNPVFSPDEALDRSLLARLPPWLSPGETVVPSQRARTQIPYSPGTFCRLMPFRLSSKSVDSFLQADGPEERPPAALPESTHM
T2 sequence (Q99653 2-195 partner limits assumed): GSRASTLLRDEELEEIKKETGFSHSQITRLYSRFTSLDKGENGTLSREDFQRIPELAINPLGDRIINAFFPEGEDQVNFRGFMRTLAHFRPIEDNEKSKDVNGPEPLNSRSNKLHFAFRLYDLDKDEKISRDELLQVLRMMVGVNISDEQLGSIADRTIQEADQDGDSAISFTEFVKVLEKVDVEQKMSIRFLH
The data set can be described thus: Cell-based assay of NHE-3 activity (pre-incubation inhibition), human. As to conditions: human Preincubation assay; for IC50: PS120 fibroblasts expressing human NHE3 and NHERF2, 0-30 μM test compound. The method, then:
Rat and human NHE-3-mediated Na^+-dependent H^+ antiport was measured using a modification of the pH sensitive dye method originally reported by Paradiso (Proc. Natl. Acad. Sci. USA. (1984) 81(23): 7436-7440). PS120 fibroblasts stably expressing human NHE3 and NHERF2 were obtained from Mark Donowitz (Baltimore, Md.). Opossum kidney (OK) cells were obtained from the ATCC and propagated per their instructions. The rat NHE-3 gene (GenBank M85300) was introduced into OK cells via electroporation, and cells were seeded into 96 well plates and grown overnight. Medium was aspirated from the wells then incubated for 30 min at 37° C. with NH4Cl-HEPES buffer (20 mM NH4Cl, 80 mM NaCl, 50 mM HEPES, 5 mM KCl, 2 mM CaCl2, 1 mM MgCl2, pH 7.4) containing 5 μM BCECF-AM. Cells were washed once with Ammonium free, Na^+-free HEPES (100 mM choline, 50 mM HEPES, 10 mM glucose, 5 mM KCl, 2 mM CaCl2, 1 mM MgCl2, pH 7.4) and incubated in the same buffer for 10 minutes at room temperature to lower intracellular pH with 0-30 μM test compound. […] Changes in intracellular pH were monitored using a FLIPR Tetra® (Molecular Devices, Sunnyvale, Calif.) by excitation at λex 439 to 505 nm, and measuring BCECF fluorescence at λem 538 nm. The initial rate of the fluorescence ratio change was used as a measure of NHE-mediated Na^+/H^+ activity, and reported as the change in fluorescence ratio per minute.

T1 sequence (P26433 29-831): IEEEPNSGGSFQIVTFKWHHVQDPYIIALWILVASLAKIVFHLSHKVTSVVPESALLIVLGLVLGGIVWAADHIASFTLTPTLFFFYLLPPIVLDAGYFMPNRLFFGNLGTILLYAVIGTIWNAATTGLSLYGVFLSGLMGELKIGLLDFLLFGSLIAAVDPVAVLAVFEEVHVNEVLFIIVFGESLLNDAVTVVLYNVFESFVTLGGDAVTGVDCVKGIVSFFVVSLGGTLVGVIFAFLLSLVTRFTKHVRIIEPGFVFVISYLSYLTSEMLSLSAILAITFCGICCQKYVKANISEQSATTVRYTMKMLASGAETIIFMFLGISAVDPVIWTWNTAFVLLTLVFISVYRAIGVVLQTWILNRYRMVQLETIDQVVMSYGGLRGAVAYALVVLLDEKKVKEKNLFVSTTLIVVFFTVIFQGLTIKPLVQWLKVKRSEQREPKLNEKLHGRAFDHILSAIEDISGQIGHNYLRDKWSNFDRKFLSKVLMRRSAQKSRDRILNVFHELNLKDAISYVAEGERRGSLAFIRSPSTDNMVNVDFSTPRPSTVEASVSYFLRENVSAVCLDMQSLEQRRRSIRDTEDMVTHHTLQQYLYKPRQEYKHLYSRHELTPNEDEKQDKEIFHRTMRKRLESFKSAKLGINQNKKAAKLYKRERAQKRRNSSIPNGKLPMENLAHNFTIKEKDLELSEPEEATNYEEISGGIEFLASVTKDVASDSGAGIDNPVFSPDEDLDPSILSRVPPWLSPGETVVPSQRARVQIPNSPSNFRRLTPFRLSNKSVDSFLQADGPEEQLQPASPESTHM

Turning to `CN1Cc2c(Cl)cc(Cl)cc2[C@H](c2cccc(S(=O)(=O)NCCOCCOCCNC(=O)Nc3ccc(NC(=O)NCCOCCOCCNS(=O)(=O)c4cccc([C@@H]5CN(C)Cc6c(Cl)cc(Cl)cc65)c4)cc3)c2)C1` (single isomer, unassigned) [Example 203, (S or R)—N,N′-(2,2′-(2,2′-(2,2′-(1,4-phenylenebis(azanediyl))bis(oxomethylene)bis(azanediyl)bis(ethane-2,1-diyl))bis(oxy)bis(ethane-2,1-diyl))bis(oxy)bis(ethane-2,1-diyl))bis(3-((S or R)-6,8-dichloro-2-methyl-1,2,3,4-tetrahydroisoquinolin-4-yl)benzenesulfonamide) bis-hydrochloride salt], the IC50 on rat NHE-3 and at human NHE3 was under 100 nM in each case. In data set [1], the “recovery in 72-hour fecal samples” value was “near quantitative recovery”. Also, the dose excreted was determined as 100 ± 6.7% in data set [1] (Rat 1), 75.8 ± 8.2% in data set [1] (Rat 2) and 104 ± 7.1% in data set [1] (Rat 3). Moreover, at human NHE3, the “% inhibition” value is listed as “C (>70%)”.
Consider `CN1Cc2c(Cl)cc(Cl)cc2[C@H](c2cccc(S(=O)(=O)NCCOCCOCCNC(=O)NCCCCNC(=O)NCCOCCOCCNS(=O)(=O)c3cccc([C@@H]4CN(C)Cc5c(Cl)cc(Cl)cc54)c3)c2)C1` (single isomer, unassigned) [Example 202, (S or R)—N,N′-(10,17-dioxo-3,6,21,24-tetraoxa-9,11,16,18-tetraazahexacosane-1,26-diyl)bis(3-((S)-6,8-dichloro-2-methyl-1,2,3,4-tetrahydroisoquinolin-4-yl)benzenesulfonamide) bis-hydrochloride salt], for which the IC50 at rat NHE-3 and against human NHE3 was under 100 nM in each case. Also, in data set [1], the “recovery in 72-hour fecal samples” value was “near quantitative recovery”. The dose excreted came out at 93.8 ± 11.8% in data set [1] (Rat 1), 90.5 ± 5.5% in data set [1] (Rat 2) and 92.4 ± 10.6% in data set [1] (Rat 3). The “% inhibition” value at human NHE3 is “C (>70%)”.
